The NIST ThermoML archive (doi:10.1021/acs.jced.8b00202)
Values joined by “and” are separate entries in the source; they are usually repeats but may differ in a detail not shown here. Equal entries are not always repeated.

Settings: Frequency=8 MHz, Dual path-length method

CC(C)C [2-methylpropane]
Settings | speed of sound
300 K, 50138 kPa, Liquid | 1240.1 m/s
300 K, 60144 kPa, Liquid | 1297.7 m/s
300 K, 70151 kPa, Liquid | 1350.8 m/s
300 K, 80158 kPa, Liquid | 1400.3 m/s
300 K, 90165 kPa, Liquid | 1446.7 m/s
300 K, 100172 kPa, Liquid | 1490.4 m/s
300.01 K, 2103.9 kPa, Liquid | 831.02 m/s
319.99 K, 40132 kPa, Liquid | 1106.5 m/s
319.99 K, 45135 kPa, Liquid | 1140.9 m/s
320 K, 1103.3 kPa, Liquid | 702.16 m/s
320 K, 1103.7 kPa, Liquid | 702.18 m/s
320 K, 1105.9 kPa, Liquid | 702.16 m/s
320 K, 2106.5 kPa, Liquid | 719.58 m/s
320 K, 3107.1 kPa, Liquid | 736.11 m/s
320 K, 5106.2 kPa, Liquid | 766.91 m/s
320 K, 5106.5 kPa, Liquid | 766.92 m/s
320 K, 5108.3 kPa, Liquid | 766.9 m/s
320 K, 6108.3 kPa, Liquid | 781.34 m/s
320 K, 7109 kPa, Liquid | 795.23 m/s
320 K, 8109.8 kPa, Liquid | 808.64 m/s
320 K, 9110.4 kPa, Liquid | 821.6 m/s
320 K, 10109 kPa, Liquid | 834.15 m/s
320 K, 10110 kPa, Liquid | 834.16 m/s and 834.15 m/s
320 K, 15114 kPa, Liquid | 891.73 m/s
320 K, 17616 kPa, Liquid | 917.89 m/s
320 K, 20118 kPa, Liquid | 942.65 m/s
320 K, 25121 kPa, Liquid | 988.67 m/s
320 K, 30123 kPa, Liquid | 1030.8 m/s
320 K, 30124 kPa, Liquid | 1030.9 m/s
320 K, 35128 kPa, Liquid | 1070 m/s
320 K, 50136 kPa, Liquid | 1173.5 m/s
320 K, 50139 kPa, Liquid | 1173.5 m/s
320 K, 60146 kPa, Liquid | 1234 m/s
320 K, 70153 kPa, Liquid | 1289.5 m/s
320 K, 80160 kPa, Liquid | 1340.8 m/s
320 K, 90167 kPa, Liquid | 1388.9 m/s
320 K, 100174 kPa, Liquid | 1434 m/s
320.01 K, 12612 kPa, Liquid | 863.87 m/s
340 K, 2104 kPa, Liquid | 604.55 m/s
340 K, 2104.2 kPa, Liquid | 604.63 m/s
340 K, 3104.8 kPa, Liquid | 625.77 m/s
340 K, 4105.5 kPa, Liquid | 645.52 m/s
340 K, 5106 kPa, Liquid | 664.1 m/s
340 K, 5106.2 kPa, Liquid | 664.04 m/s
340 K, 6106.7 kPa, Liquid | 681.52 m/s
340 K, 7107.5 kPa, Liquid | 698.12 m/s
340 K, 8108.3 kPa, Liquid | 713.94 m/s
340 K, 9109.1 kPa, Liquid | 729.07 m/s
340 K, 10109 kPa, Liquid | 743.63 m/s
340 K, 10110 kPa, Liquid | 743.59 m/s
340 K, 12612 kPa, Liquid | 777.6 m/s
340 K, 15113 kPa, Liquid | 808.91 m/s
340 K, 17616 kPa, Liquid | 838.02 m/s
340 K, 20118 kPa, Liquid | 865.3 m/s
340 K, 25121 kPa, Liquid | 915.43 m/s
340 K, 30123 kPa, Liquid | 960.88 m/s
340 K, 30125 kPa, Liquid | 960.87 m/s
340 K, 35128 kPa, Liquid | 1002.6 m/s
340 K, 40130 kPa, Liquid | 1041.4 m/s
340 K, 40132 kPa, Liquid | 1041.4 m/s
340 K, 45135 kPa, Liquid | 1077.7 m/s
340 K, 50140 kPa, Liquid | 1112 m/s
340 K, 60147 kPa, Liquid | 1175.2 m/s
340 K, 70154 kPa, Liquid | 1232.9 m/s
340 K, 80159 kPa, Liquid | 1286 m/s
340 K, 90166 kPa, Liquid | 1335.6 m/s
340 K, 100173 kPa, Liquid | 1382.1 m/s
360 K, 2104.4 kPa, Liquid | 480.04 m/s
360 K, 3105.2 kPa, Liquid | 509.76 m/s
360 K, 4105.9 kPa, Liquid | 536.09 m/s
360 K, 5104.5 kPa, Liquid | 559.92 m/s
360 K, 5104.9 kPa, Liquid | 559.91 m/s
360 K, 6107.2 kPa, Liquid | 581.76 m/s
360 K, 7108 kPa, Liquid | 602.06 m/s
360 K, 8109.7 kPa, Liquid | 621.09 m/s
360 K, 9110.4 kPa, Liquid | 639 m/s
360 K, 10108 kPa, Liquid | 655.98 m/s
360 K, 10111 kPa, Liquid | 655.99 m/s
360 K, 12613 kPa, Liquid | 695.08 m/s
360 K, 15114 kPa, Liquid | 730.38 m/s
360 K, 17616 kPa, Liquid | 762.73 m/s
360 K, 20118 kPa, Liquid | 792.71 m/s
360 K, 25121 kPa, Liquid | 847.15 m/s
360 K, 30125 kPa, Liquid | 895.9 m/s
360 K, 35128 kPa, Liquid | 940.3 m/s
360 K, 40132 kPa, Liquid | 981.26 m/s
360 K, 45135 kPa, Liquid | 1019.4 m/s
360 K, 50136 kPa, Liquid | 1055.2 m/s
360 K, 50137 kPa, Liquid | 1055.2 m/s
360 K, 50138 kPa, Liquid | 1055.2 m/s
360 K, 60146 kPa, Liquid | 1121 m/s
360 K, 70152 kPa, Liquid | 1180.7 m/s
360 K, 80159 kPa, Liquid | 1235.6 m/s
360 K, 90166 kPa, Liquid | 1286.5 m/s
360 K, 100173 kPa, Liquid | 1334.2 m/s
380 K, 3104.5 kPa, Liquid | 378.47 m/s
380 K, 3604.1 kPa, Liquid | 399.56 m/s
380 K, 4105.2 kPa, Liquid | 418.49 m/s
380 K, 5105.8 kPa, Liquid | 451.63 m/s
380 K, 6106.5 kPa, Liquid | 480.42 m/s
380 K, 7107.2 kPa, Liquid | 506.13 m/s
380 K, 8107.8 kPa, Liquid | 529.51 m/s
380 K, 8109.6 kPa, Liquid | 529.52 m/s
380 K, 9107.5 kPa, Liquid | 551.1 m/s
380 K, 9107.9 kPa, Liquid | 551.06 m/s
380 K, 10108 kPa, Liquid | 571.15 m/s
380 K, 10111 kPa, Liquid | 571.16 m/s
380 K, 12610 kPa, Liquid | 616.32 m/s
380 K, 15112 kPa, Liquid | 656.14 m/s
380 K, 15114 kPa, Liquid | 656.15 m/s
380 K, 17614 kPa, Liquid | 692.04 m/s
380 K, 20115 kPa, Liquid | 724.92 m/s
380 K, 20116 kPa, Liquid | 724.9 m/s
380 K, 25120 kPa, Liquid | 783.75 m/s
380 K, 25121 kPa, Liquid | 783.75 m/s
380 K, 30123 kPa, Liquid | 835.78 m/s
380 K, 35127 kPa, Liquid | 882.76 m/s
380 K, 40130 kPa, Liquid | 925.81 m/s
380 K, 45134 kPa, Liquid | 965.68 m/s
380 K, 50137 kPa, Liquid | 1003 m/s
380 K, 60144 kPa, Liquid | 1071.2 m/s
380 K, 70152 kPa, Liquid | 1132.8 m/s
380 K, 80160 kPa, Liquid | 1189.2 m/s
380 K, 90167 kPa, Liquid | 1241.4 m/s
380 K, 100174 kPa, Liquid | 1290.2 m/s
380.01 K, 20115 kPa, Liquid | 724.92 m/s
380.01 K, 50136 kPa, Liquid | 1002.9 m/s
400 K, 4606.1 kPa, Liquid | 309.14 m/s
400 K, 5106.4 kPa, Liquid | 334.25 m/s
400 K, 6107.2 kPa, Liquid | 375.6 m/s
400 K, 7108.1 kPa, Liquid | 409.76 m/s
400 K, 8108.8 kPa, Liquid | 439.33 m/s
400 K, 8109.3 kPa, Liquid | 439.33 m/s
400 K, 9109.5 kPa, Liquid | 465.69 m/s
400 K, 10110 kPa, Liquid | 489.63 m/s
400 K, 10111 kPa, Liquid | 489.63 m/s
400 K, 12612 kPa, Liquid | 541.93 m/s
400 K, 15114 kPa, Liquid | 586.71 m/s and 586.72 m/s
400 K, 17616 kPa, Liquid | 626.34 m/s
400 K, 20117 kPa, Liquid | 662.12 m/s
400 K, 25122 kPa, Liquid | 725.35 m/s
400 K, 30126 kPa, Liquid | 780.54 m/s
400 K, 35129 kPa, Liquid | 829.95 m/s
400 K, 40132 kPa, Liquid | 874.94 m/s
400 K, 45136 kPa, Liquid | 916.42 m/s
400 K, 50139 kPa, Liquid | 955.05 m/s
400 K, 60146 kPa, Liquid | 1025.5 m/s
400 K, 70153 kPa, Liquid | 1088.7 m/s
400 K, 80160 kPa, Liquid | 1146.5 m/s
400 K, 90167 kPa, Liquid | 1199.9 m/s
400 K, 100174 kPa, Liquid | 1249.7 m/s
420 K, 6107.4 kPa, Gas | 266.66 m/s
420 K, 7108.4 kPa, Gas | 314.01 m/s
420 K, 8109.2 kPa, Gas | 351.95 m/s
420 K, 9110 kPa, Gas | 384.27 m/s
420 K, 10111 kPa, Gas | 412.72 m/s
420 K, 12613 kPa, Gas | 472.84 m/s
420 K, 15115 kPa, Gas | 522.73 m/s
420 K, 17617 kPa, Gas | 566.03 m/s
420 K, 20119 kPa, Gas | 604.64 m/s
420 K, 25122 kPa, Gas | 671.99 m/s
420 K, 30126 kPa, Gas | 730.1 m/s
420 K, 35129 kPa, Gas | 781.73 m/s
420 K, 40133 kPa, Gas | 828.47 m/s
420 K, 45136 kPa, Gas | 871.4 m/s
420 K, 50140 kPa, Gas | 911.24 m/s
420 K, 60146 kPa, Gas | 983.6 m/s
420 K, 70153 kPa, Gas | 1048.4 m/s
420 K, 80160 kPa, Gas | 1107.4 m/s
420 K, 90167 kPa, Gas | 1161.8 m/s
420 K, 100174 kPa, Gas | 1212.4 m/s
